Where two headings read alike, the source gives them in different places.
Columns and labels:
[1] = tested on: MCF7-ADR
[2] = tested on: MCF-7; assay: cells; format: cell-based; conditions: Homo sapiens, MCF7, read-out: IC50 MCF-7
[3] = tested on: MCF7-ADR; assay: cells; conditions: Homo sapiens, NCI/ADR-RES, read-out: IC50 MCF7-ADR

Structure (SMILES): COc1cc2c(c(OC)c1OC)-c1ccc(OC)c(=O)cc1[C@@H](NC(C)=O)CC2 [Colchicine]
- MCF7-ADR/MCF7 ([1]; ratio of IC50 resistant to normal cells): 6,600

Structure (SMILES): COc1cc2c(c(OC)c1OC)-c1ccc(SC)c(=O)cc1C1=Nc3cc(C(C)(C)C)cc(C(C)(C)C)c3OC1C2 (stereo not shown) [Compound IIa]
- IC50 [2]: 17 nM

Structure (SMILES): COc1cc2c(c(OC)c1OC)-c1ccc(SC)c(=O)cc1C(=O)CC2 [Compound Ia, Thiocolchicone]
- IC50 [2]: 6.2 nM

Structure (SMILES): COc1cc2c(c(OC)c1OC)-c1ccc(OC)c(=O)cc1C(=O)CC2 [Compound Ib, Colchicone]
- IC50 [2]: 23 nM

Structure (SMILES): CC(=O)O[C@H]1C(=O)[C@@]2(C)[C@H]([C@H](OC(=O)c3ccccc3)[C@]3(O)C[C@H](OC(=O)[C@H](O)[C@@H](NC(=O)c4ccccc4)c4ccccc4)C(C)=C1C3(C)C)[C@]1(OC(C)=O)CO[C@@H]1C[C@@H]2O [Taxol]
- MCF7-ADR/MCF7 ([1]; human, mcf7-adr / mcf7 cells): 1,043
- IC50 [3]: 2400 nM
- IC50 [2]: 2.3 nM
